Reference: patent publication US10813868B2, “Method of improving hair volume” (priority 2014, dated 2020)

Tests used:
[1] = Hair switch volume test (switches dosed, combed straight, dried overnight, image projection measured); settings: for % benefit: 2% solution; for Volume: same batch of switches, 0.2 ml of 2% solution; for Volume / volume (projection of the switch image on to the screen): combed straight, dried overnight; for volume (projection of the switch image on to the screen): 0.2 ml of 2% solution per 2 g switch
Method: Dark brown European wavy #6 switches (from 2 different batches) of length 25 cm and weight 2 g were dosed with 0.2 ml each of 2% glucosamine.HCl salt solution. Control switches were wetted with water. All switches were combed straight and left to dry overnight. When dry the switches were combed straight and pictures taken. […] (Here volume refers to the projection of the switch image on to the screen and is given in mm^2).
Dark brown European wavy #6 switches of length 25 cm and weight 2 gms (from the same batch of switches), were dosed with 0.2 ml each of 2% solutions of various mono and diglucosamine salts. Control switches were treated with water.
All switches were combed straight and left to dry overnight.
When dry the switches were combed straight and pictures taken. […] (Here volume refers to the projection of the switch image on to the screen and is given in mm^2). The percentage benefit (i.e. increase in volume) with respect to control (water) is also given.

[2] = Half head test on a mannequin head, styled with a blow dryer; settings: 2% solution on left half vs water on right half; picture the day following styling
Method: FIG. 1 is an image of a mannequin head taken the day following a test performed with one half (right hand side) treated with water and the other half (left hand side) treated with 2% glucosamine.HCI salt solution and followed by styling with a blow dryer. A half head test on a mannequin head was performed with one half (right hand side) treated with water and the other half (left hand side) treated with 2% glucosamine.HCl salt solution. The head was styled with a blow dryer for volume up benefit. FIG. 1 is a picture taken the day following the styling.

[3] = Example 2, increase in volume with respect to control (water)

Compound	% benefit [1, 3] [%]	Volume ([1]; Example 2) [mm^2]	other results
N[C@H]1C(O)O[C@H](CO)[C@@H](O)[C@@H]1O.O=C(O)/C=C\C(=O)O (some centres unmarked) [glucosamine maleate]	30.1	18450	
N[C@H]1C(O)O[C@H](CO)[C@@H](O)[C@@H]1O.O=C(O)CCC(=O)O (some centres unmarked) [glucosamine succinate]	13.5	16102	
glucosamine aspartate	30.9	18566	
glucosamine pimelate	13.4	16088	
diglucosamine glutarate	35.6	19234	
N[C@H]1C(O)O[C@H](CO)[C@@H](O)[C@@H]1O.O=C(O)/C=C/C(=O)O (some centres unmarked) [glucosamine fumarate]	18.5	16802	
N[C@H]1C(O)O[C@H](CO)[C@@H](O)[C@@H]1O.O=C(O)CC(=O)O (some centres unmarked) [glucosamine malonate]	21.6	17244	
diglucosamine malonate	34.3	19053	
diglucosamine pimelate	27.1	18021	
diglucosamine glutamate	38.0	19575	
diglucosamine succinate	20.8	17136	
glucosamine nicotinate	41.6	20087	
CC(O)C(=O)O.N[C@H]1C(O)O[C@H](CO)[C@@H](O)[C@@H]1O (some centres unmarked) [glucosamine lactate]	33.6	18944	
diglucosamine fumarate	38.0	19575	
diglucosamine maleate	34.3	19053	
diglucosamine adipate	28.3	18189	
NCC(=O)O.N[C@H]1C(O)O[C@H](CO)[C@@H](O)[C@@H]1O (some centres unmarked) [glucosamine glycinate]	39.2	19748	
glucosamine glutarate	9.1	15475	
Cl.N[C@H]1C(O)O[C@H](CO)[C@@H](O)[C@@H]1O (some centres unmarked) [glucosamine•HCl, glucosamine hydrochloride]			volume (projection of the switch image on to the screen) ([1]; Batch 1 switches): 14236 mm^2; % benefit ([1]; Batch 1 switches, increase in volume vs water control): 6.7%; volume (projection of the switch image on to the screen) ([1]; Batch 2 switches): 16851 mm^2; % benefit ([1]; Batch 2 switches, increase in volume vs water control): 7.3%; volumising benefit (visual comparison) [2]: clearly evident
glucosamine glutamate	30.9	18563	
glucosamine 2-pyrrolidone-5-carboxylate [glucosamine PCA]	37.5	19505	
diglucosamine aspartate	39.5	19780	
